The results in this text go back to patent publication US8378070B2, “Peptides for the regulation of neurotransmitter sequestration and release” (Ramot at Tel-Aviv University Ltd., priority 2007, dated 2013).

One data set concerns striatum. The data set is described as follows: In vivo 6-hydroxydopamine hemiparkinsonian mouse model, striatal Western blotting. Particulars: mice. As for the experimental part:
In vivo 6-hydroxydopamine hemiparkinsonian mouse model: Eight-week-old male C57BL/6 mice (Harlan, Israel; 22-28 g) were used for 6-hydroxydopamine hemiparkinsonian mouse model experiments. All animals were housed in standard conditions, in a constant temperature (22±1° C.), relative humidity (30%), 12-h light: 12-h dark cycle, with free access to food and water. Surgical procedures were performed under the supervision of the Animal Care Committee at the Rabin Medical Center and at Tel Aviv University, Tel Aviv, Israel. Mice received a unilateral, right intrastriatal injection of […] 6-hydroxydopamine hydrobromide (Sigma, Israel) using a stereotaxic surgical procedure. Injections were targeted to the central striatum using the following coordinates: 0.5 mm anterior to bregma, 2.0 mm lateral to bregma, and 2.5 mm deep to the skull surface. Treatments were administered in a volume of 2.0 μL at a rate of 0.5 μL/min. 24 hours after 6-hydroxydopamine lesioning, striatal tissue was collected from both the injected and intact sides for DJ-1, VMAT2 and TH analysis. For analysis of acute 6-hydroxydopamine effects on phosphokinases striatal tissue was excised after 30 and 45 minutes of 6-hydroxydopamine injection.
On the technique in general: A western blot detects proteins with antibodies after separation by electrophoresis.

For a further data set, the system named is DJ-1 mRNA. Briefly: Real time quantitative PCR of DJ-1 mRNA. It counts as cell-based, human. The procedure: Cellular transfection and treatment: SH-SY5Y human neuroblastoma cells, obtained from the ATCC (Rockville, USA), were stably transfected with pIRES2-acGFP1 plasmid (BD biosciences, Clontech) containing wild type DJ-1. […] As controls, naïve neuroblastoma cells were used as well as cells stably transfected with the same vectors. Transfections were performed using the lipofectamine 2000 reagent (Invitrogen). Stable transfections were achieved by geneticin treatment and were verified by measuring DJ-1 mRNA and protein levels using real-time PCR and Western blotting. […] RNA isolation and Real time quantitative PCR: Total RNA was isolated from cultured neuroblastoma cells using a commercial reagent TriReagentTM (Sigma). The amount and quality of RNA was determined spectrophotometrically using the ND-1000 spectrophotometer (NanoDrop). First-strand cDNA synthesis was carried out from […] of the total RNA using random primer (Invitrogen) and RT-superscript II (Invitrogen) reverse transcriptase. Real-time quantitative reverse transcription polymerase chain reaction (PCR) of the desired genes was performed in an ABI Prism 7700 sequence detection system (Applied biosystems) using Sybr green PCR master mix (Applied biosystems) and the following primers: GAPDH (used as 'housekeeping' gene) sense: […] NO: 7), GAPDH antisense: […] NO: 8); DJ-1 sense: […] ID NO: 9) DJ-1 antisense: […] ID NO:10) VMAT2 sense: […] ID NO: 11) VMAT2 antisense: […] NO: 12). Real time quantitative PCR (qPCR) was performed using AbsoluteTM QPCR SYBR® Green ROX Mix, in triplicates. Quantitative calculations of the gene of interest versus GAPDH were done using the ddCT method.

Another data set relates to VMAT2 promotor. Particulars: after exposure to 50 μM dopamine.
The subject of data set [1] is SH-SY5Y human neuroblastoma cells. Briefly: MTT cell viability assay. Type of data set: cell-based. The procedure: (§1) Cellular transfection and treatment: SH-SY5Y human neuroblastoma cells, obtained from the ATCC (Rockville, USA), were stably transfected with pIRES2-acGFP1 plasmid (BD biosciences, Clontech) containing wild type DJ-1. Decreased expression of DJ-1 was achieved by stable transfection with pSilencer2.1-U6 plasmid (Ambion) containing siRNA for DJ-1. As controls, naïve neuroblastoma cells were used as well as cells stably transfected with the same vectors. Transfections were performed using the lipofectamine 2000 reagent (Invitrogen). Stable transfections were achieved by geneticin treatment and were verified by measuring DJ-1 mRNA and protein levels using real-time PCR and Western blotting.
Cell viability: Cell viability was determined by the MTT (3-(4,5-dimethylthiazole-2-yl)-2,5-diphenyltetrazolium bromide, Sigma) reduction assay. Viability after exposure to increasing dopamine levels was analyzed by adding MIT solution to each well followed by incubation at 37° C. for 3 hours. Absorbance was determined at 564 nm in a microplate reader. Cell viability was evaluated in triplicate for each treatment. All experiments were repeated at least 3 times.

The test system is the same in data set [2]. The data set is described as follows: Intracellular reactive oxygen species (DCF assay). Type of data set: cell-based. As for the experimental part: as §1
Measurement of intracellular reactive oxygen species (ROS): The generation of ROS, after exposure to increasing dopamine concentrations, was measured using H2DCFDA (Sigma), which is incorporated into the cells and cleaved into fluorescent DCF in the presence of ROS. 10 μM H2DCFDA was added to the cell suspension, and the cells were incubated in the dark at 37° C. for 10 minutes. DCF fluorescence was measured by FLUOstar spectrofluorometer microplate reader at 520 nm. The generation of ROS was quantitatively assayed by the increase in DCF fluorescence and expressed as percentage of control. Each experiment was repeated at least 3 times in triplicates.

Another data set relates to VMAT2 mRNA. Briefly: Real time quantitative PCR of VMAT2 mRNA. Type of data set: cell-based, human. The procedure: Cellular transfection and treatment: SH-SY5Y human neuroblastoma cells, obtained from the ATCC (Rockville, USA), were stably transfected with pIRES2-acGFP1 plasmid (BD biosciences, Clontech) containing wild type DJ-1. […] As controls, naïve neuroblastoma cells were used as well as cells stably transfected with the same vectors. Transfections were performed using the lipofectamine 2000 reagent (Invitrogen). Stable transfections were achieved by geneticin treatment and were verified by measuring DJ-1 mRNA and protein levels using real-time PCR and Western blotting. […] RNA isolation and Real time quantitative PCR: Total RNA was isolated from cultured neuroblastoma cells using a commercial reagent TriReagentTM (Sigma). The amount and quality of RNA was determined spectrophotometrically using the ND-1000 spectrophotometer (NanoDrop). […] Real-time quantitative reverse transcription polymerase chain reaction (PCR) of the desired genes was performed in an ABI Prism 7700 sequence detection system (Applied biosystems) using Sybr green PCR master mix (Applied biosystems) and the following primers: GAPDH (used as 'housekeeping' gene) sense: […] […] Real time quantitative PCR (qPCR) was performed using AbsoluteTM QPCR SYBR® Green ROX Mix, in triplicates. Quantitative calculations of the gene of interest versus GAPDH were done using the ddCT method.

Another data set concerns DJ-1 protein. The data set is described as follows: Western blotting of DJ-1 protein in neuroblastoma cells. It counts as cell-based, human. As for the experimental part: Cellular transfection and treatment: SH-SY5Y human neuroblastoma cells, obtained from the ATCC (Rockville, USA), were stably transfected with pIRES2-acGFP1 plasmid (BD biosciences, Clontech) containing wild type DJ-1. […] As controls, naïve neuroblastoma cells were used as well as cells stably transfected with the same vectors. Transfections were performed using the lipofectamine 2000 reagent (Invitrogen). Stable transfections were achieved by geneticin treatment and were verified by measuring DJ-1 mRNA and protein levels using real-time PCR and Western blotting. […] 8, 1987-1995 (2006)].

A further data set deals with ERK 1,2. As for the experimental part: Cells were treated with dopamine (0-500 uM; Sigma. Israel), N-acetylcysteine (NAC 5 mM; Sigma), and PD-98059 (30 uM; Calbiochem, Rosh Haayin, Israel).
Protein extraction and Western blotting: Protein extraction and Western blotting were done as previously described [Lev, N., et al Antioxid. redox signal. 8, 1987-1995 (2006)]. The membranes were probed with rabbit anti-DJ 1 antibody (1:1000; Chemicon Laboratories), mouse anti-VMAT2 (1:100; Chemicon Laboratories), and rabbit anti emerin (1:5000; Santa Cruz), followed by horseradish peroxidase conjugated secondary antibody (1:10000; Sigma) and developed with the Super Signal West Pico Chemiluminescent substrate (Pierce Biotechnology). Densitometry of the specific protein bands was preformed by VersaDoc® imaging system and Quantity One® software (BioRad).
Immunocytochemistry: Cells were fixed with 4% paraformaldehyde and permeabilized with 0.5% Triton X-100 and were then incubated in a blocking solution followed by overnight incubation with rabbit anti-VMAT2 (1:100; Chemicon Laboratories), at 4° C. followed by incubation with alexa-568 conjugated goat anti rabbit antibodies (1:1000; Molecular probes). Nuclei were counterstained by 4′,6-Diamidino-2-phenylindole dihydrochloride (DAPI, Sigma).

A further data set has as its target T1, VMAT2 (Homo sapiens, UniProt Q05940).
T1 construct: endogenous in cells; host or cells: SH-SY5Y human neuroblastoma cells (naive, stably transfected with wild type DJ-1, or with siRNA for DJ-1)
Briefly: KCl-induced [3H]dopamine release. Type of data set: cell-based. The procedure:
KCl-induced dopamine release: Cells were plated on poly-D-lysin-coated 24-well plates. Cells were rinsed with assay buffer (containing Tris 4 mM, HEPES 6.25 mM, NaCl 120 mM, KCl 5 mM, CaCl2 1.2 mM, MgSO4 1.2 mM, D-glucose 5.6 mM and ascorbic acid 0.5 mM) and were then incubated with 0.5 uCi/ml [3H]Dopamine (Amersham Biosciences) for 20 minutes at 37° C. To measure stimulation-induced [3H]Dopamine release, [3H]Dopamine-loaded cells were rinsed extensively with ice cold buffer, and were treated with 60 mM KCl for 20 minutes at 37° C. and extracellular [3H]Dopamine was measured. Inhibition of VMAT2 was done using dihydrotetrabenazine (0-1 mM). All samples were analyzed with Packard liquid scintillation counter. Experiments were conducted in triplicates and repeated three times.

Data set [3] has as its system tyrosine hydroxylase (TH). Briefly: Tyrosine hydroxylase mRNA (real time PCR) and ChIP of TH promotor. It counts as cell-based, human. Particulars: DJ-1 overexpressing cells, GAPDH reference. The procedure: RNA isolation and Real time quantitative PCR: Total RNA was isolated from cultured neuroblastoma cells using a commercial reagent TriReagent™ (Sigma). The amount and quality of RNA was determined spectrophotometrically using the ND-1000 spectrophotometer (NanoDrop). First-strand cDNA synthesis was carried out from […] of the total RNA using random primer (Invitrogen) and RT-superscript II (Invitrogen) reverse transcriptase. Real-time quantitative reverse transcription polymerase chain reaction (PCR) of the desired genes was performed in an ABI Prism 7700 sequence detection system (Applied biosystems) using Sybr green PCR master mix (Applied biosystems) and the following primers: GAPDH (used as ‘housekeeping’ gene) sense: CGACAGTCAGCCGCATCTT (SEQ ID NO: 7), GAPDH antisense: […] (SEQ ID NO: 8); DJ-1 sense: […], (SEQ ID NO: 9) DJ-1 antisense: […], (SEQ ID NO:10) VMAT2 sense: […], (SEQ ID NO: 11) VMAT2 antisense: […] (SEQ ID NO: 12). Real time quantitative PCR (qPCR) was performed using Absolute™ QPCR SYBR® Green ROX Mix, in triplicates. Quantitative calculations of the gene of interest versus GAPDH were done using the ddCT method.
In general terms: Real-time PCR tracks product formation cycle by cycle.

Where [4] appears, read: PD98059 30 uM, inhibition of ERK1,2 phosphorylation.

T1 sequence (Q05940 whole entry): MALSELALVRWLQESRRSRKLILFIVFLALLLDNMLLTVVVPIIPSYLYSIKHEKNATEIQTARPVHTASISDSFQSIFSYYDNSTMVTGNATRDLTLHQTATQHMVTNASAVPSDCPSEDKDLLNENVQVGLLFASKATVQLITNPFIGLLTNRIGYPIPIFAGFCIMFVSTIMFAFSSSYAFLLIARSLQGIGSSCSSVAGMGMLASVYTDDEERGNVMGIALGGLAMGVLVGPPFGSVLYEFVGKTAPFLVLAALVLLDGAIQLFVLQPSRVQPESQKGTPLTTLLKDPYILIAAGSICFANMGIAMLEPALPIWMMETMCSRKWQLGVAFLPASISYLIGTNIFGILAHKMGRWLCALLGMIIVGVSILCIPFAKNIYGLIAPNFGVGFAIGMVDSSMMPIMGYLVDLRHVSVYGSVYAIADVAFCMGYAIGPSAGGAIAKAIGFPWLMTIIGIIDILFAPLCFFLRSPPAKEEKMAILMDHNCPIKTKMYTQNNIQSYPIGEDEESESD
Experimental for VMAT2 promotor: Chromatin immunoprecipitation: ChIP assays using cultured neuroblastoma cells were performed following Upstate instructions. After protein-DNA cross-linking by paraformaldehyde, cells were harvested and the pellets were resuspended in lysis-buffer and sonicated on ice (5 sets of 15-s pulse at 40% maximal power). After pre-clearing with Protein G/A-agarose, aliquots were incubated with DJ-1 antibodies or non-specific antibodies (as control) overnight at 4° C. with rotation. Immunopercipitated DNA was used as templates for the following primers, designed for the human VMAT promotor: sense: [sequence]

Turning to `Br.NCCc1cc(O)c(O)cc1O` [6-hydroxydopamine, 6-hydroxydopamine hydrobromide], the “ERK1,2 phosphorylation in striatum” value with striatum (acute exposure, intrastriatal injection, 30 and 45 minutes) is reported as “increased phosphorylation of ERK1, 2”. For the same molecule, the “DJ-1 and VMAT-2 protein expression in lesioned vs unlesioned striatum” value with striatum (unilateral intrastriatal injection, 24 hours) is “increased expression of DJ-1 and of VMAT-2 proteins”.
For `NCCc1ccc(O)c(O)c1` [dopamine], the “Increase in DJ-1 mRNA” value in the data set on DJ-1 mRNA (50 μM dopamine, within 1 hour, naïve neuroblastoma cells) is on record as 2.5 fold. In addition, the “VMAT2 promotor precipitated by anti-DJ-1 antibodies (ChIP)” value in the data set on VMAT2 promotor is recorded as “higher amounts of VMAT2 promotor were precipitated”. Moreover, in [1] (dopamine 0-500 uM, 24 hours, neuroblastoma cells), the “Cell viability (MTT) after dopamine exposure” value is reported as “dose dependent cell death”. In addition, in data set [2] (increasing dopamine concentrations, neuroblastoma cells), the “Intracellular ROS (DCF assay) after dopamine exposure” value was “increased intracellular ROS”. Further, the “VMAT2 mRNA elevation of basal level” value in the data set on VMAT2 mRNA (50 μM dopamine, after 7 hours, naïve neuroblastoma cells) was 60 fold. For the same molecule, in the data set on DJ-1 protein (naïve neuroblastoma cells), the “DJ-1 protein after dopamine exposure (Western blot)” value was “Increased DJ-1 protein”. Besides, the “Time to phosphorylation of ERK 1,2 after dopamine exposure” value in the data set on ERK 1,2 (naive neuroblastoma, Western blotting and immunocytochemistry) was in the range of 20 to 60 min. The “Phosphorylation of ERK 1 and 2 after dopamine exposure” value with ERK 1,2 (naïve neuroblastoma cells) is “rapid phosphorylation”.
For the molecule `COc1cc2c(cc1OC)[C@H]1C[C@@H](O)[C@H](CC(C)C)CN1CC2` [dihydrotetrabenazine], on VMAT2 (dihydrotetrabenazine 0-1 mM, 60 mM KCl 20 minutes), the “KCl induced dopamine release” value is given as “abolished”.
In the case of `CC(=O)N[C@@H](CS)C(=O)O` [NAC, N-acetylcysteine], in the data set with DJ-1 mRNA (pre-treatment with NAC 5 mM, naïve neuroblastoma), the “Effect on dopamine-induced DJ-1 mRNA upregulation” value is “abolished DJ-1 mRNA upregulation”.
Regarding `COc1cccc(-c2cc(=O)c3ccccc3o2)c1N` [PD98059], the “Effect on dopamine-induced DJ-1 mRNA upregulation” value with DJ-1 mRNA (setting [4]) is given as “inhibited DJ-1 mRNA upregulation”. Further, the “Effect on dopamine-induced DJ-1 protein upregulation (Western blot)” value in the data set on DJ-1 protein (setting [4]) is reported as “abolished DJ-1 protein upregulation”.

B1: DJ-1: wild type DJ-1 overexpressed by stable transfection with pIRES2-acGFP1 plasmid; GenBank AB073864 (protein, listed as Homo sapiens)
chain: MASKRALVILAKGAEEMETVIPVDVMRRAGIKVTVAGLAGKDPVQCSRDVVICPDASLEDAKKEGPYDVVVLPGGNLGAQNLSESAAVKEILKEQENRKGLIAAICAGPTALLAHEIGCGSKVTTHPLAKDKMMNGGHYTYSENRVEKDGLILTSRGPGTSFEFALAIVEALNGKEVAAQVKAPLVLKD
For B1, the “DJ-1 mRNA and protein levels in overexpressing cells” value in the data set on DJ-1 mRNA (stable transfection with wild type DJ-1) was “over 3 fold”. In addition, in [3], the “TH mRNA levels (real time PCR)” value is reported as “upregulation of TH mRNA”. The “Protection against rotenone and 6-hydroxydopamine” value in data set [1] (DJ-1 overexpressing neuroblastoma cells) is given as “protects against dopaminergic toxins”. Moreover, the “Vulnerability to dopamine toxicity (MTT viability)” value in [1] (dopamine 0-500 uM, 24 hours, transfected SH-SY5Y cells) was “conferred resistance to dopamine”. The “Dopamine-induced intracellular ROS (DCF assay)” value in data set [2] (transfected SH-SY5Y cells vs naïve neuroblastoma) was “decreased intracellular ROS”. Further, in the data set on VMAT2 mRNA (stably transfected SH-SY5Y cells), the “VMAT2 expression level compared to control (mRNA)” value is on record as “over 500 fold”. The “KCl-induced dopamine release from synaptic vesicles compared to naïve neuroblastoma cells” value in the data set with VMAT2 (transfected SH-SY5Y cells) is on record as “released more dopamine”.
